Measurements: patent US20080058272A1, “Nonamer Peptides for Cancer Treatment” (priority 2006, published 2008)

Test system: PBMC of melanoma patients
Assay: Flow cytometry with HLA-A2/FAPα peptide multimers after in vitro stimulation
Assay type: cell-based, human
Protocol: The human HLA-A*0201-positive cell lines T2, a TAP-deficient T cell leukemia/B cell line hybrid and JY, a B-LCL were cultured in RPMI 1640 supplemented with 10% heat inactivated FCS. After informed consent peripheral blood lymphocytes (PBLs) were collected from HLA-A2-positive patients with advanced malignant melanoma. PBLs from HLA-A2-positive healthy individuals were used as controls. PBLs were isolated using Lymphoprep separation (Axis-Shield PoC AS, Oslo, Norway) according to the manufacturer's instructions and used directly or frozen in FCS with 10% DMSO. PBL were cultured in RPMI/10% human AB serum. Dendritic cells (DCs) were generated from PBMC by adherence on culture dishes at 37° C. for 60 minutes in RPMI enriched with 10% human AB serum. […]
After peptide-specific stimulation with FAPα peptides or with FAPα mRNA transfected DC, generated as described previously (Fassnacht et al. 2005) PBLs were stained with HLA-A2/FAPα peptide FITC-labeled multimers (a kind gift of Jorgen Scholler, Dako, Glostrup, Denmark) in PBS/0.1% BSA/FCS for 30 min in the dark, followed by staining with anti-CD8-PE (Dako, Glostrup, Denmark) for 30 min at 4° C. in the dark. Samples were analyzed on BD FACS Canto (Becton Dickinson, Heidelberg, Germany) using WinMDi or FCS Express V3.

GLFKCGIAV (listed as Homo sapiens) [FAPα^639-647]
detection of HLA-A2/FAPα^639-647 specific T cells (after in vitro stimulation with FAPα peptide-loaded dendritic cells): able to detect
detection of HLA-A2/FAPα^639-647 specific T cells (after stimulation with DCs transfected with FAPα mRNA): can be detected
